Assay results from patent US7789958B2, “Non-toxic corrosion-protection pigments based on manganese” (University of Dayton, priority 2003, dated 2010).
Values joined by “and” are separate entries in the source; they are usually repeats but may differ in a detail not shown here. Identical values can stand only once.

Key:
[1] = ASTM B-117 static salt fog test of PVB wash primers, rated by ASTM D-1654; settings: PVB wash primer; for B-117 Proc. A: ASTM D-1654 rating Procedure A; for B-117 Proc. B: ASTM D-1654 rating Procedure B
Method: (§1) The corrosion inhibiting performance of MnIII and MnIV pigments was evaluated by incorporating them into primer paint formulations. […] The wash primer is composed of a resin, an acid, a corrosion inhibiting pigment, powdered talc, and carbon lampblack. The acid content of this wash primer provides a rigorous initial test of the stability and performance of the pigments. Other, more benign, polymer-based binder and resin systems might not separate the compounds based on their performance as effectively or as rapidly. […] PVB was used exclusively throughout testing to avoid preparation and compositional complications during analysis of pigment performance. However, the invention is not limited to the use of PVB. […] A small amount (0.2 g) of powdered talc (magnesium silicate) “filler” was added. Lampblack was not added to these samples. These components were mixed thoroughly by hand and 3.8 g of phosphoric acid diluent added with further mixing. This rough processing allowed direct comparisons of pigment performance to be made without complications due to powder treatments, modifications, and additives. […] This is not the conventional paint application procedure for aluminum alloys. Under normal service conditions, aluminum alloys are first subjected to a hexavalent chromium-containing conversion coating prior to primer application. However, the conversion coating was omitted so that the performance of the pigment alone could be evaluated and not the synergistic effects of hexavalent chromium (in the conversion coating) or even of barrier films (in the phosphate or anodized coatings). […] This accelerated corrosion test exposes samples to a constant salt-water fog and is a de facto test of solubility for corrosion inhibitors. […] This accelerated corrosion test exposes samples to a cycle of fog of dilute salt and ammonium sulfate at room temperature followed by forced-air drying at an elevated temperature. This is a more realistic test of the ability of a compound to inhibit corrosion. […] After the paint dried for 24 hours, each plate was scribed with an X and the plate edges were sealed with PVC tape to eliminate corrosion edge effects. Two visual observations are associated with this rating test. Procedure A involves a rating of the failure at the scribe-the representative […] of corrosion away from the scribe. […] In this way, not only the bulk corrosion-inhibiting action of a pigment through the binder can be rated, but also its “throwing power”.

[2] = ASTM G-85.5 cyclic Prohesion test of PVB wash primers, rated by ASTM D-1654; settings: PVB wash primer; for G-85 Proc. A: ASTM D-1654 rating Procedure A; for G-85 Proc. B: ASTM D-1654 rating Procedure B
Method: as §1

[3] = cited from earlier work
[4] = 7.44 × 10^−4 M (10% of Cr), 139 hours, 2024-T3 (alloy taken from column order of Table 7)
[5] = 7.44 × 10^−4 M (10% of Cr), 139 hours, 7075-T6 (alloy taken from column order of Table 7)
[6] = 7.44 × 10^−4 M (10% of Cr), 117 hours, 2024-T3 (alloy taken from column order of Table 7)
[7] = 7.44 × 10^−4 M (10% of Cr), 117 hours, 7075-T6 (alloy taken from column order of Table 7)
[8] = 1.49 × 10^−3 M (20% of Cr), 144 hours, 2024-T3 (alloy taken from column order of Table 7)
[9] = 1.49 × 10^−3 M (20% of Cr), 144 hours, 7075-T6 (alloy taken from column order of Table 7)

| Molecule | B-117 Proc. A [1, 4] | B-117 Proc. A [1, 5] | B-117 Proc. B [1, 4] | B-117 Proc. B [1, 5] | G-85 Proc. A [2, 4] | G-85 Proc. A [2, 5] | G-85 Proc. B [2, 4] | G-85 Proc. B [2, 5] | B-117 Proc. A [1, 6] | B-117 Proc. A [1, 7] | G-85 Proc. A [2, 6] | G-85 Proc. A [2, 7] | G-85 Proc. B [2, 6] | G-85 Proc. B [2, 7] | other results |
| --- | --- | --- | --- | --- | --- | --- | --- | --- | --- | --- | --- | --- | --- | --- | --- |
| zinc 13-vanadatomanganate | 8 | 7 | 9 | 8 | 7 | 7 and 6 | 6 and 5 | 6 and 5 |  |  |  |  |  |  |  |
| calcium 9-molybdomanganate |  |  |  |  |  |  |  |  | 6 | 5 | 6 | 7 | 5 | 6 | B-117 Proc. B [1, 6]: 3; B-117 Proc. B [1, 7]: 4 |
| zinc 9-molybdomanganate |  |  |  |  |  |  |  |  | 5 | 5 | 7 | 7 and 8 | 7 and 6 | 7 | B-117 Proc. B [1, 6]: 3; B-117 Proc. B [1, 7]: 4 and 3 |
| [O]1[Pb][O][Pb]12[O][Pb][O]2 [red lead] |  |  |  |  |  |  |  |  |  |  |  |  |  |  | PbVI solubility ([3]; Glasstone, J. Chem. Soc. 121: 1456-69, 1922): 10^−17 moles/liter Pb^+4 |
| [O]=[Cr](=[O])([O-])[O-].[O]=[Pb].[Pb+2] [basic lead chromate] |  |  |  |  |  |  |  |  |  |  |  |  |  |  | solubility in water relative to lead chromate [3]: slightly lower solubility in water |
| strontium 13-vanadatomanganate | 7 | 7 | 6 | 6 | 6 | 6 | 5 and 6 | 5 and 6 |  |  |  |  |  |  |  |
| barium hexaiodatomanganate |  |  |  |  |  |  |  |  |  |  |  |  |  |  | B-117 Proc. A [1, 8]: 5; B-117 Proc. A [1, 9]: 5; B-117 Proc. B [1, 8]: 3; B-117 Proc. B [1, 9]: 3; G-85 Proc. A [2, 8]: 7 and 8; G-85 Proc. A [2, 9]: 8 and 7; G-85 Proc. B [2, 8]: 7 and 8; G-85 Proc. B [2, 9]: 8 and 7 |
| magnesium 13-vanadatomanganate | 9 | 7 | 7 | 8 | 7 | 6 and 7 | 6 | 5 and 6 |  |  |  |  |  |  |  |
| strontium 9-molybdomanganate |  |  |  |  |  |  |  |  | 5 | 4 and 5 | 6 | 6 | 5 | 5 |  |
| barium 9-molybdomanganate |  |  |  |  |  |  |  |  | 4 | 3 | 7 | 8 and 7 | 6 | 7 and 6 |  |
| calcium 13-vanadatomanganate | 8 | 7 | 7 | 6 | 7 | 7 | 6 | 6 |  |  |  |  |  |  |  |
| barium 13-vanadatomanganate | 7 | 7 | 8 and 7 | 6 | 6 and 7 | 6 | 6 | 5 |  |  |  |  |  |  |  |
